# Data published in patent US12673975B2, “Cyclic peptide, cell scaffold material, cell separating material, and medium” (FUJIFILM Corporation, priority 2019, dated 2026).
# Read-outs that look alike come from different tables or passages of the source. Starred links: 1 amine or outer side, 2 acyl side, 3 side chain; linkers in the order of their positions; H or OH if unused. Positions of bridges follow the written chain, without caps; N, C: chain ends. Non-standard residues stand in square brackets, D forms with d. Residues, ends and D or L forms follow the SMILES beside them. Pen = CC(C)(S)[C@H](N)C(=O)O; hCys = N[C@@H](CCS)C(=O)O; Dab = NCC[C@H](N)C(=O)O; Dap = NC[C@H](N)C(=O)O; X1 = O=C(C[*:2])[*:1]; X2 = O=C(C[*:1])[*:2]
# Tests used:
# human integrin αvβ5 = human integrin αvβ5 (Homo sapiens, UniProt P06756+P18084); assay: Evaluation of integrin binding property (surface plasmon resonance, Biacore 3000, immobilized cyclic peptide)
# human integrin αvβ5, sequence (P06756 31-1048): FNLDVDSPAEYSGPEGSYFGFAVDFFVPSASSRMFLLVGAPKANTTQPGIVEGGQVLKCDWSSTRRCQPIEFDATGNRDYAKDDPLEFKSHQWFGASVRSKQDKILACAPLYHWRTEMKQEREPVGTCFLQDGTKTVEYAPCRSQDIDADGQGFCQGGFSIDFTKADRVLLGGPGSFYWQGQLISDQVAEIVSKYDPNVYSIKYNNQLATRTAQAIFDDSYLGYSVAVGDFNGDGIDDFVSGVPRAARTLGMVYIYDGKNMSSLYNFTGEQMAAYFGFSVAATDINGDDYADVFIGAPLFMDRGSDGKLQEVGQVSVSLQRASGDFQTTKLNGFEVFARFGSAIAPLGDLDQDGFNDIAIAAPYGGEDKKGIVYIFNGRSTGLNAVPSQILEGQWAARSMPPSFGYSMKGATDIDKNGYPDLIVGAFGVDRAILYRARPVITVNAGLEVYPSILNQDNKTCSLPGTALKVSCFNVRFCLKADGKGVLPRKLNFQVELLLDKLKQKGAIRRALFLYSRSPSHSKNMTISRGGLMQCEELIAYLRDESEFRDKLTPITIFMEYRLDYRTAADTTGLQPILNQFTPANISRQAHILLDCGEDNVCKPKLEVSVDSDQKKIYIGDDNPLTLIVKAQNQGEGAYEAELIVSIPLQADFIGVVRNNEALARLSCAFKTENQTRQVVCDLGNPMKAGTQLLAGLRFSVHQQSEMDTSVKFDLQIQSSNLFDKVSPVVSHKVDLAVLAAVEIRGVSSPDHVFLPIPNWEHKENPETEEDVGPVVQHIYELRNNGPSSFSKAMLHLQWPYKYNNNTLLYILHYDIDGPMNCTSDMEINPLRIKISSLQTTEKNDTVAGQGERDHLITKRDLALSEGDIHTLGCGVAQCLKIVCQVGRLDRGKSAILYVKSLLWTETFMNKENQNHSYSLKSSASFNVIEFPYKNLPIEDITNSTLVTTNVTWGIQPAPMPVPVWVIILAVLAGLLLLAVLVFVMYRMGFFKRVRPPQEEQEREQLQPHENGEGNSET
# human integrin αvβ5, sequence (P18084 24-799): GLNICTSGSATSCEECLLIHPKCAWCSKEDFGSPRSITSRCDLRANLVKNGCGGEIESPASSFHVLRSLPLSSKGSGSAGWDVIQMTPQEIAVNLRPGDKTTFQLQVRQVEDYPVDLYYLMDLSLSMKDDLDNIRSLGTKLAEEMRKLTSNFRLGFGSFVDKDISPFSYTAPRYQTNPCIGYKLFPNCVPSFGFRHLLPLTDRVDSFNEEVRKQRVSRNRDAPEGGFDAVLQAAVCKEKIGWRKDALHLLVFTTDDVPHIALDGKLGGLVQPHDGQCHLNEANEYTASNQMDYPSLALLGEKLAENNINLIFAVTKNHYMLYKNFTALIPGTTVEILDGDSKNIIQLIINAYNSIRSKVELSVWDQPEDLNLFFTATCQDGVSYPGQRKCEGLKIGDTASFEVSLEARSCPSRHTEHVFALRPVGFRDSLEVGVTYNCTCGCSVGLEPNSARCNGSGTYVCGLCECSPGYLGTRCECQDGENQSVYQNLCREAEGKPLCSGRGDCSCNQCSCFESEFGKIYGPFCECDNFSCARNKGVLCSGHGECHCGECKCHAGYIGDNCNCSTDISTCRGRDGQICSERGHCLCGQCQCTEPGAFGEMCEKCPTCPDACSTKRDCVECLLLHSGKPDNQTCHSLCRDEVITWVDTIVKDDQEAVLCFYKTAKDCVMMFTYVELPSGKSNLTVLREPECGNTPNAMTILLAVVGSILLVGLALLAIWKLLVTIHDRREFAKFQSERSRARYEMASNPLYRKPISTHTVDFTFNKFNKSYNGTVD
# Outline: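 Human αvβ5 (30-1,000 nM) flowed for 10 min at 25 °C over immobilized cyclic peptide in 20 mM HEPES, 150 mM NaCl, 5 mM MgCl2, pH 7.4, followed by 30 min running buffer and 0.5 M EDTA regeneration. Dissociation constant from peptide minus unimmobilized channel, scored into standard grades.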
# [1] = Evaluation of molecule stability (alkali treatment, residual rate by LC/MS); type: physicochemical; details: for Stability (molecule stability, residual rate of the cyclic peptide rank): alkali treatment, residual rate by LC/MS; for Performance evaluation: Stability (residual rate of cyclic peptide after alkali treatment): 500 μM peptide aqueous solution plus equivalent of 1 M sodium hydroxide, 15° C., 3 hours, LC/MS peak area
# Outline: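 Stability read as percent of summed LC/MS peak area remaining versus untreated peptide (C18, 45 °C, 10 mM ammonium formate pH 3, ESI positive/negative). Treatment: 500 μM peptide in water plus an equivalent of 1 M NaOH, 15 °C for 3 hours.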
# [2] = surface plasmon resonance, immobilized cyclic peptide, human integrin αvβ5, read-out: Binding activity (integrin binding property, dissociation constant rank)
# [3] = SPR, 25° C., HEPES buffer with 5 mM magnesium chloride, integrin 30-1,000 nM, read-out: Performance evaluation: Binding activity (dissociation constant between the cyclic peptide and human integrin αvβ5)
Kd (human integrin αvβ5; [2]),Kd (human integrin αvβ5; [3]),Structure (SMILES),Kd (human integrin αvβ5),"Stability (molecule stability, residual rate of the cyclic peptide rank) [1]",Performance evaluation: Stability (residual rate of cyclic peptide after alkali treatment) [1]
–,–,"CC(C)[C@@H]1NC(=O)[C@@H](NC(=O)CNC(=O)[C@H](CCCCN)NC(=O)[C@H](CCCCN)NC(=O)[C@@H](N)CCCCN)CCSCC(=O)NCC[C@@H](C(=O)NCC(=O)O)NC(=O)[C@H](C)NC(=O)[C@H](Cc2ccccc2)NC(=O)[C@H]([C@@H](C)O)NC(=O)[C@H](CC(=O)O)NC(=O)CNC(=O)[C@H](CCCNC(=N)N)NC(=O)[C@@H]2CCCN2C1=O [Cyclic peptide 105, KKKG-(Hcy)-VPRGDTFA(Dab(acetyl))G] (H-KKKG[hCys]VPRGDTFA[Dab]G-OH; linker 5-14 via X2)",< 50 nM,A (The residual rate of the cyclic peptide is 70% or more.),–
50 to 100 nM,–,"C[C@H](NC(=O)[C@@H]1CCNC(=O)CSCC[C@H](NC(=O)[C@H](C)NC(=O)[C@H](CCCCN)NC(=O)[C@H](CCCCN)NC(=O)[C@@H](N)CCCCN)C(=O)N[C@@H]([C@@H](C)O)C(=O)N[C@@H]([C@@H](C)O)C(=O)N[C@@H](CCCNC(=N)N)C(=O)NCC(=O)N[C@@H](CC(=O)O)C(=O)N[C@@H](CO)C(=O)N[C@@H](Cc2ccccc2)C(=O)N[C@@H](C)C(=O)N1)C(=O)O [Cyclic peptide 161, KKKA-(Hcy)-TTRGDSFA(Dab(acetyl))A] (H-KKKA[hCys]TTRGDSFA[Dab]A-OH; linker 5-14 via X2)",–,A (The residual rate of the cyclic peptide is 70% or more.),–
–,50 to 100 nM,"CC[C@H](C)[C@@H]1NC(=O)[C@@H](NC(=O)[C@H](C)NC(=O)[C@H](CCCCN)NC(=O)[C@H](CCCCN)NC(=O)[C@@H](N)CCCCN)CCSCC(=O)NCC[C@@H](C(=O)N[C@@H](C)C(=O)O)NC(=O)[C@H]([C@@H](C)O)NC(=O)[C@H](Cc2ccccc2)NC(=O)[C@H]([C@@H](C)O)NC(=O)[C@H](CC(=O)O)NC(=O)CNC(=O)[C@H](CCCNC(=N)N)NC(=O)[C@@H]2CCCN2C1=O [Cyclic peptide 82, KKKA-(Hcy)-IPRGDTFT(Dab(acetyl))A] (H-KKKA[hCys]IPRGDTFT[Dab]A-OH; linker 5-14 via X2)",–,–,A (The residual rate of the cyclic peptide is 70% or more.)
–,< 50 nM,"CC[C@H](C)[C@@H]1NC(=O)[C@@H](NC(=O)[C@H](CCCCN)NC(=O)[C@H](CCCCN)NC(=O)[C@@H](N)CCCCN)CCSCC(=O)NCC[C@@H](C(=O)NCC(=O)O)NC(=O)[C@H](CCCNC(=N)N)NC(=O)[C@H](Cc2ccccc2)NC(=O)[C@H](CC(N)=O)NC(=O)[C@H](CC(=O)O)NC(=O)CNC(=O)[C@H](CCCNC(=N)N)NC(=O)[C@@H]2CCCN2C1=O [Cyclic peptide 4, KKK-(Hcy)-IPRGDNFR(Dab(acetyl))G] (H-KKK[hCys]IPRGDNFR[Dab]G-OH; linker 4-13 via X2)",–,–,A (The residual rate of the cyclic peptide is 70% or more.)
–,50 to 100 nM,"N=C(N)NCCC[C@@H]1NC(=O)[C@H](Cc2ccc(O)cc2)NC(=O)[C@H](CC(N)=O)NC(=O)[C@H](CC(=O)O)NC(=O)CNC(=O)[C@H](CCCNC(=N)N)NC(=O)[C@@H]2CCCN2C(=O)[C@H](CCC(=O)O)NC(=O)[C@@H](NC(=O)CNC(=O)[C@H](CCCCN)NC(=O)[C@H](CCCCN)NC(=O)[C@@H](N)CCCCN)CCSCC(=O)NCC[C@@H](C(=O)N[C@@H](CC(=O)O)C(=O)O)NC1=O [Cyclic peptide 37, KKKG-(Hcy)-EPRGDNYR(Dab(acetyl))D] (H-KKKG[hCys]EPRGDNYR[Dab]D-OH; linker 5-14 via X2)",–,–,A (The residual rate of the cyclic peptide is 70% or more.)
–,50 to 100 nM,"CC[C@H](C)[C@@H]1NC(=O)[C@@H](NC(=O)[C@H](C)NC(=O)[C@H](CCCCN)NC(=O)[C@H](CCCCN)NC(=O)[C@@H](N)CCCCN)CCSCC(=O)NCC[C@@H](C(=O)N[C@@H](C)C(=O)O)NC(=O)[C@H](CCCNC(=N)N)NC(=O)[C@H](Cc2ccc(O)cc2)NC(=O)[C@H]([C@@H](C)O)NC(=O)[C@H](CC(=O)O)NC(=O)CNC(=O)[C@H](CCCNC(=N)N)NC(=O)[C@@H]2CCCN2C1=O [Cyclic peptide 81, KKKA-(Hcy)-IPRGDTYR(Dab(acetyl))A] (H-KKKA[hCys]IPRGDTYR[Dab]A-OH; linker 5-14 via X2)",–,–,A (The residual rate of the cyclic peptide is 70% or more.)
50 to 100 nM,–,"CC[C@H](C)[C@@H]1NC(=O)[C@@H](NC(=O)CNC(=O)[C@H](CCCCN)NC(=O)[C@H](CCCCN)NC(=O)[C@@H](N)CCCCN)CCNC(=O)CSC[C@@H](C(=O)N[C@@H](C)C(=O)O)NC(=O)[C@H](CCCNC(=N)N)NC(=O)[C@H](Cc2ccccc2)NC(=O)[C@H]([C@@H](C)O)NC(=O)[C@H](CC(=O)O)NC(=O)CNC(=O)[C@H](CCCNC(=N)N)NC(=O)[C@@H]2CCCN2C1=O [Cyclic peptide 138, KKKG(Dab(acetyl))IPRGDTFR(C)A] (H-KKKG[Dab]IPRGDTFRCA-OH; linker 5-14 via X1)",–,C (The residual rate of the cyclic peptide is 30% or more and less than 50%.),–
< 50 nM,–,"CC[C@H](C)[C@@H]1NC(=O)[C@@H](NC(=O)CNC(=O)[C@H](CCCCN)NC(=O)[C@H](CCCCN)NC(=O)[C@@H](N)CCCCN)C(C)(C)SCC(=O)NC[C@@H](C(=O)N[C@@H](C)C(=O)O)NC(=O)[C@H](CCCNC(=N)N)NC(=O)[C@H](Cc2ccccc2)NC(=O)[C@H]([C@@H](C)O)NC(=O)[C@H](CC(=O)O)NC(=O)CNC(=O)[C@H](CCCNC(=N)N)NC(=O)[C@@H]2CCCN2C1=O [Cyclic peptide 128, KKKG-(Pen)-IPRGDTFR(Dap(acetyl))A] (H-KKKG[Pen]IPRGDTFR[Dap]A-OH; linker 5-14 via X2)",–,B (The residual rate of the cyclic peptide is 50% or more and less than 70%.),–
–,< 50 nM,"CC(C)C[C@@H]1NC(=O)[C@@H](NC(=O)CNC(=O)[C@H](CCCCN)NC(=O)[C@H](CCCCN)NC(=O)[C@@H](N)CCCCN)CCSCC(=O)NCC[C@@H](C(=O)N[C@@H](C)C(=O)O)NC(=O)[C@H](CCCNC(=N)N)NC(=O)[C@H](Cc2ccccc2)NC(=O)[C@H]([C@@H](C)O)NC(=O)[C@H](CC(=O)O)NC(=O)CNC(=O)[C@H](CCCNC(=N)N)NC(=O)[C@@H]2CCCN2C1=O [Cyclic peptide 71, KKKG-(Hcy)-LPRGDTFR(Dab(acetyl))A] (H-KKKG[hCys]LPRGDTFR[Dab]A-OH; linker 5-14 via X2)",–,–,A (The residual rate of the cyclic peptide is 70% or more.)
–,< 50 nM,"CC(C)[C@@H]1NC(=O)[C@@H](NC(=O)[C@H](C)NC(=O)[C@H](CCCCN)NC(=O)[C@H](CCCCN)NC(=O)[C@@H](N)CCCCN)CCSCC(=O)NCC[C@@H](C(=O)N[C@@H](C)C(=O)O)NC(=O)[C@H](CCCNC(=N)N)NC(=O)[C@H](Cc2ccccc2)NC(=O)[C@H]([C@@H](C)O)NC(=O)[C@H](CC(=O)O)NC(=O)CNC(=O)[C@H](CCCNC(=N)N)NC(=O)[C@H]([C@@H](C)O)NC1=O [Cyclic peptide 89, KKKA-(Hcy)-VTRGDTFR(Dab(acetyl))A] (H-KKKA[hCys]VTRGDTFR[Dab]A-OH; linker 5-14 via X2)",–,–,A (The residual rate of the cyclic peptide is 70% or more.)
< 50 nM,–,"CC[C@H](C)[C@@H]1NC(=O)[C@@H](NC(=O)CNC(=O)[C@H](CCCCN)NC(=O)[C@H](CCCCN)NC(=O)[C@@H](N)CCCCN)CCSCC(=O)NCCCC[C@@H](C(=O)N[C@@H](C)C(=O)O)NC(=O)[C@H](CCCNC(=N)N)NC(=O)[C@H](Cc2ccccc2)NC(=O)[C@H]([C@@H](C)O)NC(=O)[C@H](CC(=O)O)NC(=O)CNC(=O)[C@H](CCCNC(=N)N)NC(=O)[C@@H]2CCCN2C1=O [Cyclic peptide 116, KKKG-(Hcy)-IPRGDTFR(Lys(acetyl))A] (H-KKKG[hCys]IPRGDTFRKA-OH; linker 5-14 via X2)",–,A (The residual rate of the cyclic peptide is 70% or more.),–
–,< 50 nM,"CC[C@H](C)[C@@H]1NC(=O)[C@@H](NC(=O)[C@H](C)NC(=O)[C@H](CCCCN)NC(=O)[C@H](CCCCN)NC(=O)[C@@H](N)CCCCN)CCSCC(=O)NCC[C@@H](C(=O)N[C@@H](CC(=O)O)C(=O)O)NC(=O)[C@H](CCCNC(=N)N)NC(=O)[C@H](Cc2ccc(O)cc2)NC(=O)[C@H](CC(N)=O)NC(=O)[C@H](CC(=O)O)NC(=O)CNC(=O)[C@H](CCCNC(=N)N)NC(=O)[C@@H]2CCCN2C1=O [Cyclic peptide 30, KKKA-(Hcy)-IPRGDNYR(Dab(acetyl))D] (H-KKKA[hCys]IPRGDNYR[Dab]D-OH; linker 5-14 via X2)",–,–,A (The residual rate of the cyclic peptide is 70% or more.)
–,< 50 nM,"CC[C@H](C)[C@@H]1NC(=O)[C@@H](NC(=O)CNC(=O)[C@H](CCCCN)NC(=O)[C@H](CCCCN)NC(=O)[C@@H](N)CCCCN)CCSCC(=O)NCC[C@@H](C(=O)N[C@@H](C)C(=O)O)NC(=O)[C@H](Cc2ccccc2)NC(=O)[C@H]([C@@H](C)O)NC(=O)[C@H](CC(=O)O)NC(=O)CNC(=O)[C@H](CCCNC(=N)N)NC(=O)[C@@H]2CCCN2C1=O [Cyclic peptide 58, KKKG-(Hcy)-IPRGDTF(Dab(acetyl))A] (H-KKKG[hCys]IPRGDTF[Dab]A-OH; linker 5-13 via X2)",–,–,A (The residual rate of the cyclic peptide is 70% or more.)
